Assay results published in patent publication US20260265771A1, “METHODS OF INCREASING THE REGENERATION EFFICIENCY IN PLANTS” (Institute of Genetics and Developmental Biology Chinese …, priority 2022, published 2026).

System: RER
Assay: Autophosphorylation assay of RER in tobacco leaves
Type: cell-based, tomato
Conditions: 100 nM, 20 min

Chain of RER (as listed by the source): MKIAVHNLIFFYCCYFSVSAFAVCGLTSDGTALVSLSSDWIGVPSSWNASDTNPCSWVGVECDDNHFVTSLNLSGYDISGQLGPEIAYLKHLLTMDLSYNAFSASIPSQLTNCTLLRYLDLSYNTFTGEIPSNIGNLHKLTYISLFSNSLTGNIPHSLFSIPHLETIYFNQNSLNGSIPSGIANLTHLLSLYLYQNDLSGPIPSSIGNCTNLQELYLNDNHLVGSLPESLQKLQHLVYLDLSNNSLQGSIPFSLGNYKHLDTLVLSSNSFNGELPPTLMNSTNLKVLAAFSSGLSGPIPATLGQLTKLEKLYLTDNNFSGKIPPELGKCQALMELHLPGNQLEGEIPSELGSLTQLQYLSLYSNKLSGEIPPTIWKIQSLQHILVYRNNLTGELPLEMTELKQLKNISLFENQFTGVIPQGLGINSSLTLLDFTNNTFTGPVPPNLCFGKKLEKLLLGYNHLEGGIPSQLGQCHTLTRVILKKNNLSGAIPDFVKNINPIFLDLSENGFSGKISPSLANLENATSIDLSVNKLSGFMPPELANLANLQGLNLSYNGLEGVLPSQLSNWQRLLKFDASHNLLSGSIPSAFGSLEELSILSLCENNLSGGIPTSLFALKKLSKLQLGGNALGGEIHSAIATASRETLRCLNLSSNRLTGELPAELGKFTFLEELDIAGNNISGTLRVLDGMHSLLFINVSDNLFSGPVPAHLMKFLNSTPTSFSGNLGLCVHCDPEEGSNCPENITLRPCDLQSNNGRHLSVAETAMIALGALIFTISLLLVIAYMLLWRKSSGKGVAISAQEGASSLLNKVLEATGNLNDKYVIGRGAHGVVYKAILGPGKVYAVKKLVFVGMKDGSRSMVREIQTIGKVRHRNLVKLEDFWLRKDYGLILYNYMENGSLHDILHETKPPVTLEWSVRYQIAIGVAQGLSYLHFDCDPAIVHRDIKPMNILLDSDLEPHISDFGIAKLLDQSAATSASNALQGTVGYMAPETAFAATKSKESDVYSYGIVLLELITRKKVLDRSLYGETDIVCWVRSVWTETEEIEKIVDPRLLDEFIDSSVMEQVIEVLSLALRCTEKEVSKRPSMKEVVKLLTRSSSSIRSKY

Sequence: ATDRRGRPPSRPKVGSGPPPQNN (listed as Solanum lycopersicum) [REF1, 23 amino acid tomato peptide cleaved from precursor PROSIPEP]
- auto-phosphorylation of RER: triggers auto-phosphorylation
